Reference: patent US20020015990A1, “LACTOBACILLUS BIFIDUS GROWTH PROMOTING COMPOSITION AND USE THEREOF” (priority 1996, published 2002)

Legend:
[1] = system: Bifidobacterium bifidum BB-225; assay: Consumption speed-accelerating effect (increase in turbidity after 8 hours, test medium / glucose basic medium); format: cell-based; details: for Consumption speed-accelerating effect, Bifidobacterium bifidum: Table 1, single oligosaccharide in place of glucose; for Consumption speed-accelerating effect, B. bifidum: Table 2, raffinose + lactulose, total 2.0% in place of 2.0% glucose
Description: (§1) Bifidobacterium bifidum BB-225, Bifidobacterium adolescentis BB-102, Bifidobacterium breve BB-308, Bifidobacterium longum BB-536. The basic culture medium and pre-cultivation solution were prepared as in above-mentioned Preliminary Test 1. The test culture medium was prepared using the following 7 types of oligosaccharides, which are widely used as Lactobacillus bifidus growth factor, in place of glucose: Raffinose (Nihon […] Seito Co., Ltd.), lactulose (Morinaga Milk Industry Co., Ltd.), galacto-oligosaccharide (Nisshin Seito Co., Ltd.), lactosucrose (Hayashibara Shoji Co., Ltd.), fructo-oligosaccharide (Meiji Seika Co., Ltd.), isomalto-oligosaccharide (Hayashibara Shoji Co., Ltd.), and xylo-oligosaccharide (Santori Co., Ltd.). Cultivation was performed as in above-mentioned Preliminary Test 1 and the sugar consumption speed was calculated by the following formula and comparative studies were performed, using the increment increase in turbidity of each medium up to 8 hours later as the index. Consumption speed-accelerating effect (fold)=(increase in turbidity after 8 hours in test medium)/(increase in turbidity after 8 hours in basic medium) The basic culture medium and pre-cultivation solution were prepared as for above-mentioned Preliminary Test 1. The test culture medium was prepared changing the total amount of each of the desired raffinose and oligosaccharide to 2.0% in place of the 2.0% glucose in the basic medium and the addition ratio to 13 steps. The oligosaccharides that were used were the same as in above-mentioned Preliminary Test 2, and cultivation, determination of turbidity and assessment of the sugar consumption speed-accelerating activity were performed by the same methods as in above-mentioned Preliminary Test 2.

[2] = system: Bifidobacterium longum BB-536; assay: as above; format: cell-based; details: for Consumption speed-accelerating effect, Bifidobacterium longum: Table 1, single oligosaccharide in place of glucose; for Consumption speed-accelerating effect, B longum: Table 2, raffinose + lactulose, total 2.0% in place of 2.0% glucose
Description: as §1

[3] = system: Bifidobacterium breve BB-308; assay: as above; format: cell-based; details: for Consumption speed-accelerating effect, Bifidobacterium breve: Table 1, single oligosaccharide in place of glucose; for Consumption speed-accelerating effect, B breve: Table 2, raffinose + lactulose, total 2.0% in place of 2.0% glucose
Description: as §1

[4] = system: Bifidobacterium adolescentis BB-102; assay: as above; format: cell-based; details: for Consumption speed-accelerating effect, Bifidobacterium adolescentis: Table 1, single oligosaccharide in place of glucose; for Consumption speed-accelerating effect, B. adolescentis: Table 2, raffinose + lactulose, total 2.0% in place of 2.0% glucose
Description: as §1

[5] = system: 4 species of Lactobacillus bifidus; assay: Mean consumption speed-accelerating activity of 4 species of test bacteria; format: cell-based, Bifidobacterium adolescentis, breve, bifidum, longum; details: 8 hours; for Mean consumption speed-accelerating activity of 4 species: Table 2, raffinose + lactulose; for Mean consumption speed-accelerating activity of 4 species / Mean consumption speed-accelerating activity of 4 species of test bacteria: total 2.0% in place of 2.0% glucose; for Mean consumption speed-accelerating activity of 4 species of test bacteria: Table 3, raffinose + other oligosaccharide
Description: Bifidobacterium bifidum BB-225, Bifidobacterium adolescentis BB-102, Bifidobacterium breve BB-308, Bifidobacterium longum BB-536. Cultivation was performed as in above-mentioned Preliminary Test 1 and the sugar consumption speed was calculated by the following formula and comparative studies were performed, using the increment increase in turbidity of each medium up to 8 hours later as the index. Consumption speed-accelerating effect (fold)=(increase in turbidity after 8 hours in test medium)/(increase in turbidity after 8 hours in basic medium) The same four species of Lactobacillus bifidus as used in above-mentioned Preliminary Test 2 were employed. The basic culture medium and pre-cultivation solution were prepared as for above-mentioned Preliminary Test 1. The test culture medium was prepared changing the total amount of each of the desired raffinose and oligosaccharide to 2.0% in place of the 2.0% glucose in the basic medium and the addition ratio to 13 steps. The oligosaccharides that were used were the same as in above-mentioned Preliminary Test 2, and cultivation, determination of turbidity and assessment of the sugar consumption speed-accelerating activity were performed by the same methods as in above-mentioned Preliminary Test 2. The consumption speed-accelerating effect of each of the 4 strains of Lactobaccilus bifidus tested, as well as the average consumption speed-accelerating effect of the 4 species tested, in a culture medium that used a combination of raffinose and lactulose are shown in Table 2 and the average consumption speed-accelerating effect in each of the 4 species of bacteria tested with various test media other than medium using raffinose and lactulose are shown in Table 3.

[6] = system: Bifidobacterium longum BB-536; assay: Preliminary Test 1: change over time in medium turbidity (growth curve) with different sugar sources; format: cell-based; details: sugar in place of glucose in basic medium; up to 24 hours of cultivation at 37° C.; turbidity 660 nm
Description: This test was performed in order to investigate changes over time in medium turbidity and determine if measurement of turbidity after a certain cultivation time is valid for assessing the speed with which the Lactobacilluls bifidus consumes sugar:
Bifidobacterium longum BB-536, which is a microorganism belonging to the genus Bifidobacterium, derived from humans that was separated and identified from the feces of healthy adults by conventional methods (Tomonari Mitsuoka, ed., “Research of Bifidus Bacteria,” pages 40˜60, Zaidanhojin Nihon Bifizusukin Senta (Japan Bifidus Bacteria Center), 1994) was used in this test. Furthermore, this strain is stored by the inventors and is available for any person as needed. […]
First, 0.5 ml of each of the above-mentioned cultivation solutions of Lactobacillus bifidus were inoculated in every 2 of the above-mentioned test media and turbidity was immediately measured with a quartz cell at a wavelength of 660 nm and light path length of 10 mm using a spectrophotometer (Hitachi Seisakusho Co., Ltd.). […] Turbidity was measured under the same conditions as previously described at 2-hour intervals and the mean turbidity of the 2 test tubes was calculated as the determination.
Moreover, basic medium containing glucose was simultaneously used as the control and turbidity was similarly determined. […]

Row | Compound | Consumption speed-accelerating effect, Bifidobacterium bifidum [1] | Consumption speed-accelerating effect, B. bifidum [1] | Consumption speed-accelerating effect, Bifidobacterium longum [2] | Consumption speed-accelerating effect, B longum [2] | Consumption speed-accelerating effect, Bifidobacterium breve [3] | Consumption speed-accelerating effect, B breve [3] | Consumption speed-accelerating effect, Bifidobacterium adolescentis [4] | Consumption speed-accelerating effect, B. adolescentis [4] | consumption speed-accelerating activity by Lactobacillus bifidus (in words) ([5]; 4 species, compared with glucose medium) | Mean consumption speed-accelerating activity of 4 species [5] | sugar consumption speed compared with glucose medium (FIG. 1) [6] | Mean consumption speed-accelerating activity of 4 species of test bacteria [5] | availability for Bifidobacterium bifidus (in words) ([1]; single oligosaccharide in place of glucose)
1 | OC[C@H]1O[C@@H](O[C@@H]2[C@@H](CO)OC(O)(CO)[C@H]2O)[C@H](O)[C@@H](O)[C@H]1O (mixture of isomers) [Lactulose] | 0.96 fold | (0.96) fold | 0.92 fold | (0.92) fold | 1.08 fold | (1.08) fold | 0.97 fold | (0.97) fold | relatively strong consumption speed-accelerating activity | (0.98) fold | approximately the same sugar consumption speed as the medium that used glucose |  | 
2 | OC[C@H]1O[C@@H](O[C@H]2[C@H](O)[C@@H](O)[C@@H](O[C@]3(CO)O[C@H](CO)[C@@H](O)[C@@H]3O)O[C@@H]2CO)[C@H](O)[C@@H](O)[C@H]1O [Lacto-sucrose, lactosucrose] | 0.03 fold |  | 0.78 fold |  | 0.87 fold |  | 0.83 fold |  |  |  |  | (0.63) fold | 
3 | OC[C@H]1O[C@H](OC[C@H]2O[C@H](O[C@]3(CO)O[C@H](CO)[C@@H](O)[C@@H]3O)[C@H](O)[C@@H](O)[C@@H]2O)[C@H](O)[C@@H](O)[C@H]1O [Raffinose] | 0.02 fold | (0.02) fold | 1.09 fold | (1.09) fold | 1.15 fold | (1.15) fold | 1.02 fold | (1.02) fold |  | (0.82) fold | higher consumption speed than the medium that used glucose | (0.82) fold | did not show availability
